Assays:
[1] = Metal chelating activity of the compound assessed as inhibition of ferrozine Fe2+ complex formation at 25 to 100 ug/ml after 10 min by spectrophotometric analysis; format: physicochemical
Pseudomonas aeruginosa = assay: Antimicrobial activity against Pseudomonas aeruginosa MTCC 1688 assessed as diameter of growth inhibition zone at 500 ug/ml after 24 hr by cup-plate method; format: functional; details: MTCC 1688, 24 h, read-out: DIZ
Klebsiella pneumoniae = assay: Antimicrobial activity against Klebsiella pneumoniae NCTC 13368 assessed as diameter of growth inhibition zone at 500 ug/ml after 24 hr by cup-plate method; format: functional; details: NCTC 13368, 24 h, read-out: DIZ
Aspergillus flavus = assay: Antimicrobial activity against Aspergillus flavus MTCC 1973 assessed as diameter of growth inhibition zone at 500 ug/ml after 72 hr by cup-plate method; format: functional; details: MTCC 1973, 72 h, read-out: DIZ
Escherichia coli = assay: Antimicrobial activity against Escherichia coli MTCC 723 assessed as diameter of growth inhibition zone at 500 ug/ml after 24 hr by cup-plate method; format: functional; details: MTCC 723, 24 h, read-out: DIZ
Aspergillus niger = assay: Antimicrobial activity against Aspergillus niger MTCC 281 assessed as diameter of growth inhibition zone at 500 ug/ml after 72 hr by cup-plate method; format: functional; details: MTCC 281, 72 h, read-out: DIZ
Staphylococcus aureus = assay: Antimicrobial activity against Staphylococcus aureus ATCC 29513 assessed as diameter of growth inhibition zone at 500 ug/ml after 24 hr by cup-plate method; format: functional; details: ATCC 29513, 24 h, read-out: DIZ
Aspergillus oryzae = assay: Antimicrobial activity against Aspergillus oryzae MTCC 3567 assessed as diameter of growth inhibition zone at 500 ug/ml after 72 hr by cup-plate method; format: functional; details: MTCC 3567, 72 h, read-out: DIZ
Aspergillus terreus = assay: Antimicrobial activity against Aspergillus terreus MTCC 1782 assessed as diameter of growth inhibition zone at 500 ug/ml after 72 hr by cup-plate method; format: functional; details: MTCC 1782, 72 h, read-out: DIZ
[2] = system: Radical scavenging activity; assay: Antioxidant activity assessed as DPPH radical scavenging activity at 50 ug/ml by spectrophotometric analysis; format: functional
[3] = system: Radical scavenging activity; assay: Antioxidant activity assessed as DPPH radical scavenging activity at 75 ug/ml by spectrophotometric analysis; format: functional

| inhibition (INH) [1] | SMILES | zone of inhibition at 500 µg/mL (Pseudomonas aeruginosa) [mm] | zone of inhibition at 500 µg/mL (Klebsiella pneumoniae) [mm] | zone of inhibition at 500 µg/mL (Aspergillus flavus) [mm] | zone of inhibition at 500 µg/mL (Escherichia coli) [mm] | zone of inhibition at 500 µg/mL (Aspergillus niger) [mm] | zone of inhibition at 500 µg/mL (Staphylococcus aureus) [mm] | zone of inhibition at 500 µg/mL (Aspergillus oryzae) [mm] | zone of inhibition at 500 µg/mL (Aspergillus terreus) [mm] | Activity [2] [%] | Activity [3] [%] |
| --- | --- | --- | --- | --- | --- | --- | --- | --- | --- | --- | --- |
| Active | Nc1n[nH]c2nc(-c3ccc(Cl)cc3)cc(-c3c(-c4ccccc4)[nH]c4ccccc34)c12 | 8 | 10 | 11 | 10 | 10 | 14 | 10 | 8 | – | – |
| – | Nc1ncnc2nc(-c3ccccc3)cc(-c3c(-c4ccccc4)[nH]c4ccc(Cl)cc34)c12 | 8 | 5 | 8 | 9 | 10 | 10 | 10 | 5 | 78 | – |
| – | Nc1n[nH]c2nc(-c3ccc(Cl)cc3)cc(-c3c(-c4ccccc4)[nH]c4ccc(Cl)cc34)c12 | 6 | 11 | 8 | 10 | 6 | 10 | 10 | 10 | – | 73.5 |
| Active | O=c1[nH]cnc2nc(-c3ccc(Cl)cc3)cc(-c3c(-c4ccccc4)[nH]c4ccc(Cl)cc34)c12 | 13 | 11 | 3 | 11 | 10 | 11 | 14 | 8 | – | – |
| Active | O=c1[nH]cnc2nc(-c3ccccc3)cc(-c3c(-c4ccccc4)[nH]c4ccccc34)c12 | 10 | 10 | 11 | 10 | 8 | 2 | 10 | 8 | – | – |
| – | Nc1ncnc2nc(-c3ccccc3)cc(-c3c(-c4ccccc4)[nH]c4ccccc34)c12 | 9 | 10 | 10 | 5 | 10 | 10 | 9 | 5 | – | – |
| – | Cc1ccc2[nH]c(-c3ccccc3)c(-c3cc(-c4ccc(Cl)cc4)nc4ncnc(N)c34)c2c1 | 11 | 10 | 11 | 6 | 10 | 8 | 8 | 5 | – | – |
| – | Cc1ccc(-c2cc(-c3c(-c4ccccc4)[nH]c4ccccc34)c3c(=O)[nH]cnc3n2)cc1 | 10 | 11 | 5 | 10 | 6 | 8 | 6 | 10 | – | – |
| – | Cc1ccc(-c2cc(-c3c(-c4ccccc4)[nH]c4ccccc34)c3c(N)n[nH]c3n2)cc1 | 9 | 9 | 8 | 10 | 5 | 11 | 10 | 2 | – | – |
| – | O=c1[nH]cnc2nc(-c3ccc(Cl)cc3)cc(-c3c(-c4ccccc4)[nH]c4ccccc34)c12 | 2 | 8 | 11 | 10 | 10 | 10 | 10 | 11 | – | – |

Source: ChEMBL document CHEMBL3045544, “Synthesis, antimicrobial and antioxidant activities of some new indole derivatives containing pyridopyrimidine and pyrazolopyridine moieties” (Med Chem Res, 2013)
